The source of these data is patent US8057800B2, “Immunointeractive molecules and uses thereof” (Circassia Limited, priority 2004, dated 2011).

Experiment [1] concerns peanut specific TCL generated using CPE. In words: CPE driven peanut specific TCL proliferation assay (3H-thymidine). The format is cell-based, human. Particulars: for proliferative response / responders with a proliferative response to the peptide: CPE driven TCL; for proliferative response: peptide 10 μg/ml, stimulation index ≧2.5; for subjects responding to the peptide who also had a proliferative response to Ara h 2: subjects with a response to Ara h 2 (19-38) and Ara h 2 (28-47); for responders with a proliferative response to the peptide: 8 responders. The protocol: FIG. 4 is a graphical representation of peanut allergic donor peanut specific TCL proliferative responses to Ara h 2 peptides, Ara h 2 and crude peanut extract. Peanut specific TCL (5×10^4 cells/ml) from individuals with peanut allergy generated using CPE were stimulated with Ara h 2 peptides at a concentration of 10 μg/ml in the presence of autologous irradiated PBMC as APC (5×10^4 cells/ml) in 3 day cultures.
(§1) Freshly harvested or frozen stored PBMC were cultured in 24-well plates (Greiner Biotechnik, Germany) at 2.5×10^6 cells per well (2 ml volume) in complete medium with antigen at an optimised concentration for 7 days at 37° C. in a 5% CO2 humidified incubator. In the case of frozen PBMC the cells were first washed once in wash medium, 1 in 10 dilution of PBMC to medium, and pelleted at 329×g for 10 minutes to remove DMSO. At day 7 cells were washed once and resuspended at 1 to 1.5×10^6/ml and added together with 1×10^6/ml washed irradiated (3000 rads; Gammacell 1000 Elite, Nordion International, Inc.) autologous PBMC (from liquid nitrogen stocks) and antigen into fresh 24-well plates. At day 2 following restimulation, 25 U/ml of recombinant human interleukin-2 (rIL-2) was added and at day 4, 1 ml of culture medium was removed and replaced with fresh medium and 25 U/ml rIL-2. For some experiments due to low cell numbers at 2 weeks, 3 week TCLs were generated by restimulation with antigen and rIL-2 as above for a further week. In all experiments T cells were rested for 6 to 7 days after the last addition of antigen and APC.
5.0×10^4/well TCL cells were cultured in triplicate in 96-well U bottom plates (Linbro ICN Biomedicals, USA) with antigen or medium alone and rIL-2 as negative and positive controls respectively, in the presence of autologous irradiated (3000 rads) PBMC (5.0×10^4/well). Cultures were incubated for 3 days. In the last 16 hours of culture, wells were pulsed with ^3H-thymidine (1 μCi/well), then harvested onto printed glass fibre filters with a 96-well automatic cell harvester. ^3H-thymidine incorporation was measured by liquid scintillation spectroscopy.
To determine the T cell epitopes of Ara h 2, oligoclonal CPE-specific TCL were generated from PBMC of 21 peanut-allergic donors and 5 non-peanut allergic donors, and stimulated with a nested set of synthetic peptides spanning the entire Ara h 2 sequence (FIG. 1). A peptide concentration of 10 μg/ml was determined to be the optimal stimulating concentration within proliferation assays. Optimisation included assays at both 10 μg/ml and 30 μg/ml. […] In this setting, and because of the limited availability of donor cells and the cost of commercially prepared peptides, the lower concentration was used.
Several approaches to the production of TCL were used, including stimulation of cells with two and three pulses of CPE separated by 7 days each, two pulses of CPE with a third pulse of rAra h 2, again separated by 7 days each, and three stimulations with rAra h 2. Responses by TCL receiving two CPE stimulations were in general lower than those receiving three stimulations, such that it was felt the sensitivity of the assay may be compromised. […] This lead to the use of TCL stimulated with 3 pulses of CPE, each separated by 7 days for all subjects tested.

Experiment [2] has the same test system. Kind of experiment: Cytokine ELISA (IL-5, IFN-γ) of CPE driven TCL supernatants. Type of experiment: cell-based, human. Particulars: for IL-5 production: 48 hours. The method, then:
FIG. 7 is a graphical representation of peanut allergic donor peanut specific Ara h 2 pulsed TCL cytokine responses to Ara h 2 peptides, Ara h 2 and crude peanut extract. Peanut specific TCLs (5×10^4/ml) from individuals with peanut allergy were generated using CPE, then stimulated with Ara h 2 peptides at a concentration of 10 ug/ml in the presence of autologous irradiated PBMC as APC (5×10^4/ml) in 3 day cultures. Cytokine supernatants were collected after 48 hours culture and assayed by specific ELISA. […] Peptides associated with a significant proliferative response are shaded grey.
Supernatants (70-75 μl/well of triplicate cultures) were harvested and pooled from T cell proliferation assay cultures at 48 hours (IL-5, IFN-γ) and frozen at −80° C. Harvested supernatants were replaced with warm (37° C.) complete medium and cells subsequently pulsed and harvested as described previously.
IL-5 and IFN-γ levels in culture supernatants were measured by sandwich ELISA. White Costar (Corning, USA) ELISA plates were coated with capture mAb (IL-5 and IFN-γ, 2 μg/ml; 30 μl/well) diluted in binding buffer overnight at 4° C. Plates were then washed three times in PBS/0.05% Tween (wash buffer) and wells blocked with 100 μl/well of 1% BSA/PBS (blocking buffer) for 1 hour at room temperature. Following three washes in wash buffer, 30 μl/well of serial dilutions of recombinant human IL-5 or IFN-γ (5000-0.15 pg/ml) in blocking buffer-0.05% Tween or culture supernatants were added and incubated overnight at 4° C. Following four washes in wash buffer, plates were incubated with biotinylated detection mAb (IL-5, 1 μg/ml; IFN-γ, 0.5 μg/ml; 50 μl/well) diluted in blocking buffer for 1 hour at room temperature. Plates were then washed 6 times in wash buffer and incubated with a 1 in 2000 dilution of streptavidin-peroxidase (50 μl/well) in blocking buffer for 45 minutes at room temperature. Following 8 washes in wash buffer, 100 μl/well of freshly prepared chemiluminescent substrate (Perkin-Elmer, USA) was used and plates read in a Lumicount microplate glow luminometer (Packard Instrument Company, USA), 0.5 seconds/well, automatic sensitivity setting. Standard curve construction and determination of unknown cytokine levels was performed using Packard Instruments software. IL-5 and IFN-γ ELISA sensitivities were 2 pg/ml and 4 pg/ml, respectively.
To identify the phenotype of T cells associated with a peptide proliferative response, supernatants were collected from TCL cultures 48 hours after stimulation with peptides and assayed for the presence of IL-5 and IFN-γ. For each donor, peptides associated with a proliferative response and two peptides not associated with a proliferative response were tested. […] In general, cytokine responses were at the lower limits of detection. […]

Experiment [3] has as its system peanut specific TCL generated using CPE and rAra h 2. In words: rAra h 2 pulsed peanut specific TCL proliferation assay (3H-thymidine). The format is cell-based, human. The protocol:
FIG. 5 is a graphical representation of peanut allergic donor peanut specific Ara h 2 pulsed TCL proliferative responses Ara h 2 peptides, Ara h 2 and crude peanut extract. Peanut specific TCL (5×10^4 cells/ml) from individuals with peanut allergy were generated using CPE and rAra h 2, then stimulated with Ara h 2 peptides at a concentration of […] in the presence of autologous irradiated PBMC as APC (5×10^4 cells/ml) in 3 day cultures.
as §1
5.0×10^4/well TCL cells were cultured in triplicate in 96-well U bottom plates (Linbro ICN Biomedicals, USA) with antigen or medium alone and rIL-2 as negative and positive controls respectively, in the presence of autologous irradiated (3000 rads) PBMC (5.0×10^4/well). […] In the last 16 hours of culture, wells were pulsed with ^3H-thymidine (1 μCi/well), then harvested onto printed glass fibre filters with a 96-well automatic cell harvester. ^3H-thymidine incorporation was measured by liquid scintillation spectroscopy. […]

In experiment [4] the test system is specific IgE. The settings on record: cited from earlier work.
Experiment [5] has as its system serum IgE. Kind of experiment: Western blot of CPE for serum IgE reactivity to Ara h 2. Particulars: western blotting of CPE. Type of experiment: binding, human. An excerpt: Following resolution of CPE on a 14% polyacrylamide gel, proteins were transferred to nitrocellulose and probed with sera from the study population, and non-peanut allergic controls. IgE was detected using HRP conjugated mouse anti-human IgE and enhanced chemiluminescence.
SDS-PAGE gels were assembled into stacks in transfer buffer as follows: blotting paper, nitrocellulose membrane, gel and blotting paper. Sample proteins and pre-stained molecular weight markers were electrophoretically transferred from SDS-PAGE gels to nitrocellulose at 30 volts for 3 hours in an Xcell II blot module (Novex, USA). Following transfer, the nitrocellulose membrane was stained with Ponceau S to ensure adequate protein transfer, then cut into strips and blocked by incubation with 10% milk powder-PBS for 1 hour at room temperature. The blocked nitrocellulose membrane was then washed in PBS and incubated with sample sera diluted 1 in 5 with 1% milk powder-PBS-Tween for all proteins except for Ara h 1, whereupon a 1 in 10 serum dilution was used. Incubation took place overnight, following which the blot was washed 3 times in PBS-Tween, 5 minutes/wash. […] The nitrocellulose was then photographed and analysed using Labworks image acquisition software (UVP Laboratory Products, UK). […]

With “RRCQSQLERANLRPCEQHLM (Peanut Ara h 2) [Ara h 2 (28-47), Ara h 2 20-mer peptide, residues 28-47]”, in experiment [1], the proliferative response entry was “inducing proliferative responses” and the “subjects responding to the peptide who also had a proliferative response to Ara h 2” value stood at 60%.

Turning to “RQQWELQGDRRCQSQLERAN (Peanut Ara h 2) [Ara h 2 (19-38), Ara h 2 20-mer peptide, residues 19-38]”, in experiment [2] (subject 10, CPE driven TCL), the IL-5/IFN-γ ratio is on record as around 7 and the IL-5 production stood at 540 pg/mL. Moreover, in experiment [2] (subject 21, CPE driven TCL), the IL-5/IFN-γ ratio entry is “approximately 20” and the IL-5 production worked out at 2054 pg/mL. Besides, in experiment [1], the “responders with a proliferative response to the peptide” value was 3 of the 8 and the “subjects responding to the peptide who also had a proliferative response to Ara h 2” value is reported as 60%. In addition, the “subjects demonstrating their greatest response to this peptide” value in experiment [1] (response magnitude ranked for each subject) was 3. For the same molecule, in experiment [3] (subject 10, both types of TCL preparation), the “reactivity of subject 10” value was “reacted”. The “magnitude of response relative to other peptides” value in experiment [3] (subject 10, rAra h 2 pulsed TCL) is “less than that generated by stimulation with Ara h 2 (37-56) and Ara h 2 (46-65)”.

In the case of “PYDRRGAGSSQHQERCCNEL (Peanut Ara h 2) [Ara h 2 (73-92), Ara h 2 20-mer peptide, residues 73-92]”, the “responders with a proliferative response to the peptide” value in experiment [1] is 3 of the 8. The “pattern of reactivity of subject 6” value in experiment [3] (subject 6, rAra h 2 pulsed TCL) is reported as “did not include”.

As for “RCMCEALQQIMENQSDRLQG (Peanut Ara h 2) [Ara h 2 (100-119), Ara h 2 20-mer peptide, residues 100-119]”, the proliferative response result in experiment [1] is “inducing proliferative responses”.

B1: Ara h 2: major peanut allergen, a glycoprotein of the conglutin seed storage family (protein)
chain: LTILVALALFLLAAHASARQQWELQGDRRCQSQLERANLRPCEQHLMQKIQRDEDSYERDPYSPSQDPYSPSPYDRRGAGSSQHQERCCNELNEFENNQRCMCEALQQIMENQSDRLQGRQQEQQFKRELRNLPQQCGLRAPQRCDLDVESGGRDRY
modifications: Peanut Ara h 2
notes: major peanut allergen, a glycoprotein of the conglutin seed storage family
Take B1: the “sera reactive with Ara h 2” value in experiment [4] (Burks et al, 1992) is recorded as 6 out of 6. Further, in experiment [4] (de Jong et al. 1998), the “subjects with specific IgE to purified natural Ara h 2” value was “approximately 78%”. Besides, in experiment [4] (western blotting of crude peanut extract, Clarke et al. 1998), the “subjects possessing specific IgE to Ara h 2” value is 71%. For the same molecule, the “subjects possessing IgE towards the recombinant form” value in experiment [4] (western blotting, Kleber-Janke et al. 1999) is on record as 85%. For the same molecule, the “peanut allergic subjects possessing IgE reactive to Ara h 2 doublet” value in experiment [5] (22 peanut allergic subjects) is 20 out of the 22. Further, in experiment [5] (non-peanut allergic controls), the “IgE binding to Ara h 2 in non-peanut allergic controls” value is “weak and potentially non-specific”.
